Reference: US20240391862A1, “(1,4,5-TRISUBSTITUTED-1H-PYRAZOL-3-YL)OXY-2-ALKOXY ALKYL ACIDS AND THEIR DERIVATIVES, THEIR SALTS AND THEIR USE AS HERBICIDAL AGENTS” (Bayer AKtiengesellschaft, priority 2021, published 2024)

Legend:
ZEAMX = experiment: Post-emergence herbicidal effect and crop plant compatibility, greenhouse pot test; format: in vivo, Zea mays; conditions: one-leaf stage, rated visually after about 3 weeks vs untreated controls
Outline: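 Sandy loam pots, greenhouse. One-leaf stage (2–3 wk after sowing) foliar spray; WP/EC in water + 0.5% additive, 600 l/ha; 20–320 g/ha. Visual score ~3 wk, 0–100% vs untreated.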

ABUTH = experiment: Post-emergence herbicidal effect, greenhouse pot test; format: in vivo, Abutilon theophrasti; conditions: visual rating about 3 weeks after treatment
Outline: (§1)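 Visual % activity scored roughly 3 weeks post-spray against untreated plants, where 100% means death and 0% equals control. Plants were treated at the one-leaf stage, 2 to 3 weeks after sowing in sandy loam, at 20 to 320 g/ha.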

ALOMY = experiment: as above; format: in vivo, Alopecurus myosuroides; conditions: 320 g/ha, visual rating about 3 weeks after treatment
Outline: as §1

AMARE = experiment: as above; format: in vivo, Amaranthus retroflexus; conditions: visual rating about 3 weeks after treatment
Outline: as §1

AVEFA = experiment: as above; format: in vivo, Avena fatua; conditions: visual rating about 3 weeks after treatment
Outline: as §1

DIGSA = experiment: as above; format: in vivo, Digitaria sanguinalis; conditions: visual rating about 3 weeks after treatment
Outline: as §1

ECHCG = experiment: as above; format: in vivo, Echinochloa crus-galli
Outline: as §1

LOLRI = experiment: as above; format: in vivo, Lolium rigidum
Outline: as §1

MATIN = experiment: as above; format: in vivo, Tripleurospermum inodorum
Outline: as §1

PHBPU = experiment: as above; format: in vivo, Ipomoea purpurea
Outline: as §1

POLCO = experiment: as above; format: in vivo, Fallopia convolvulus; conditions: 320 g/ha
Outline: as §1

SETVI = experiment: as above; format: in vivo, Setaria viridis
Outline: as §1

VERPE = experiment: as above; format: in vivo, Veronica persica
Outline: as §1

VIOTR = experiment: as above; format: in vivo, Viola tricolor
Outline: as §1

KCHSC = experiment: as above; format: in vivo; conditions: 320 g/ha
Outline: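 Greenhouse plants in sandy loam, sprayed post-emergence at the one-leaf stage (2–3 weeks after sowing) with WP or EC formulations in water plus 0.5% additive at 600 l/ha. Rates 20 to 320 g/ha. Activity rated visually after about 3 weeks against untreated controls (0% like control, 100% dead).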

Row | Structure (SMILES) | Post-emergence effect at 20 g/ha against ZEAMX in % (ZEAMX) [%] | Post-emergence effect against ABUTH (ABUTH; 20 g/ha) [%] | Post-emergence effect against ABUTH (ABUTH; 80 g/ha) [%] | Post-emergence effect against ABUTH (ABUTH; 320 g/ha) [%] | Post-emergence effect against ALOMY (ALOMY) [%] | Post-emergence effect against AMARE (AMARE; 320 g/ha) [%] | Post-emergence effect against AVEFA (AVEFA; 320 g/ha) [%] | Post-emergence effect against DIGSA (DIGSA; 80 g/ha) [%] | Post-emergence effect against DIGSA (DIGSA; 320 g/ha) [%] | Post-emergence effect against ECHCG in % (ECHCG; 80 g/ha) [%] | Post-emergence effect against ECHCG in % (ECHCG; 320 g/ha) [%] | Post-emergence effect against LOLRI in % (LOLRI; 320 g/ha) [%] | Post-emergence effect against MATIN in % (MATIN; 80 g/ha) [%] | Post-emergence effect against MATIN in % (MATIN; 320 g/ha) [%] | Post-emergence effect against PHBPU in % (PHBPU; 80 g/ha) [%] | Post-emergence effect against PHBPU in % (PHBPU; 320 g/ha) [%] | Post-emergence effect against POLCO in % (POLCO) [%] | Post-emergence effect against SETVI in % (SETVI; 80 g/ha) [%] | Post-emergence effect against SETVI in % (SETVI; 320 g/ha) [%] | Post-emergence effect against VERPE in % (VERPE; 80 g/ha) [%] | further results
1 | COC(=O)CCOC(=O)C(OC)Oc1nn(-c2ccccc2F)c(-c2ccc(F)nc2)c1C1CC1 (single isomer, unassigned) [Example I-74] | 0 | 80 | 80 | 90 | 90 | 80 | 90 | 80 | 90 | 90 | 90 | 90 | 80 | 80 | 90 | 90 | 90 | 90 | 90 | 90 | Post-emergence effect against AMARE (AMARE; 20 g/ha): 80%; Post-emergence effect against AMARE (AMARE; 80 g/ha): 80%; Post-emergence effect against AVEFA (AVEFA; 80 g/ha): 90%; Post-emergence effect against ECHCG (ECHCG; 20 g/ha, visual rating about 3 weeks after treatment): 90%; Post-emergence effect against PHBPU in % (PHBPU; 20 g/ha): 80%; Post-emergence effect against VERPE in % (VERPE; 320 g/ha): 90%; Post-emergence effect against VIOTR in % (VIOTR; 20 g/ha): 80%; Post-emergence effect against VIOTR in % (VIOTR; 80 g/ha): 90%; Post-emergence effect against VIOTR in % (VIOTR; 320 g/ha): 90%; Post-emergence effect against KCHSC in % (KCHSC): 90%
2 | COC(=O)CCOC(=O)C(OC)Oc1nn(-c2ccccc2F)c(-c2ccc(F)nc2)c1C1CC1 (single isomer, unassigned) [Example I-75] | 0 | 80 | 80 | 90 | 80 | 90 | 90 | 80 | 80 | 90 | 90 | 90 | 80 | 80 | 80 | 90 | 80 | 80 | 90 | 80 | Post-emergence effect at 80 g/ha against ZEAMX in % (ZEAMX; 80 g/ha): 0%; Post-emergence effect against LOLRI in % (LOLRI; 80 g/ha): 80%; Post-emergence effect against VERPE in % (VERPE; 320 g/ha): 90%; Post-emergence effect against VIOTR in % (VIOTR; 80 g/ha): 80%; Post-emergence effect against VIOTR in % (VIOTR; 320 g/ha): 90%; Post-emergence effect against KCHSC in % (KCHSC): 90%
